Where “and” joins values, the source holds several entries; their conditions need not be identical. Equal values may be shown once.
Key:
Format in all cases: biochemical
Kdr = target: T1, Kdr (Homo sapiens, UniProt P35968); assay: Kinase inhibition assay (33P transfer), Kdr; settings: Table 3, class symbols; read-out: KDR-1
T1 construct: Kinases are expressed as either kinase domains or full length constructs; made in house
Procedure, shortened: (§1)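 Enzyme activity is taken as the amount of 33PO4 moved from ATP onto poly(Glu, Tyr) 4:1 or poly(Arg, Ser) 3:1 fixed to the plate surface. Unbound label is removed with 0.5% phosphoric acid before scintillation counting.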

IGFR-1 = target: T2, IGFR-1 (Homo sapiens, UniProt P08069); assay: Kinase inhibition assay (33P transfer), IGFR-1; settings: Table 2, class symbols A-E
T2 construct: Kinases are expressed as either kinase domains or full length constructs; made in house

Itk = target: T3, Itk (Homo sapiens, UniProt Q08881); assay: Kinase inhibition assay (33P transfer), Itk; settings: Table 3, class symbols; read-out: Itk-1
T3 construct: Kinases are expressed as either kinase domains or full length constructs; made in house
T3 sequence (Q08881 1-620): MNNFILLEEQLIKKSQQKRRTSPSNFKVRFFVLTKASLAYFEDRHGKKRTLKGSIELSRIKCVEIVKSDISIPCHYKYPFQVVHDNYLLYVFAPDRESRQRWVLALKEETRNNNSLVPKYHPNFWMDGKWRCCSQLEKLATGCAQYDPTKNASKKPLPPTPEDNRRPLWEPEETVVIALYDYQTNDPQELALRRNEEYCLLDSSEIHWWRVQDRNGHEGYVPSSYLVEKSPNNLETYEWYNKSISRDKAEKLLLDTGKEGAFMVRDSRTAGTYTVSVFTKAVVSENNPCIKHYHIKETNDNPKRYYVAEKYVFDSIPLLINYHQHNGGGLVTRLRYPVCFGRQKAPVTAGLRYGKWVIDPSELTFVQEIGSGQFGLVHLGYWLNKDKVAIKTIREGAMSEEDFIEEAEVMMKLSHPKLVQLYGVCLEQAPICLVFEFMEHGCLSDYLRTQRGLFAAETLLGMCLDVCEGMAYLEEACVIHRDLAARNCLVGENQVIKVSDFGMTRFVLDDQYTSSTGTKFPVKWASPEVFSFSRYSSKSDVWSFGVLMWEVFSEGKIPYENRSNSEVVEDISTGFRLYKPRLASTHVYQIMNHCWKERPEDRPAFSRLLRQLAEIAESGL
Procedure, shortened: (§2)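 Activity read as 33P incorporation from ATP into poly(Glu,Tyr) 4:1 or poly(Arg,Ser) 3:1 substrate bound to microtiter plates, measured by scintillation after acid washing. Enzymes were affinity-purified GST or polyHis fusions (kinase domain or full length) from E. coli or baculovirus; IC50 = 50% reduction in labelled phosphate.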

ErbB2 = target: T4, ErbB2 (Homo sapiens, UniProt P04626); assay: Kinase inhibition assay (33P transfer), ErbB2; settings: read-out: ErbB2-2
T4 construct: Kinases are expressed as either kinase domains or full length constructs; made in house
Procedure, shortened: as §2

EGFR = target: T5, EGFR (Homo sapiens, UniProt P00533); assay: Kinase inhibition assay (33P transfer), EGFR; settings: Table 2, class symbols A-E; read-out: EGFR-1
T5 construct: Kinases are expressed as either kinase domains or full length constructs; made in house
Procedure, shortened: as §2

PDGFRB = target: T6, PDGFRB (Homo sapiens, UniProt P09619); assay: Kinase inhibition assay (33P transfer), PDGFRB; settings: read-out: PDGFRB-1
T6 construct: Kinases are expressed as either kinase domains or full length constructs; made in house

c-Met = target: T7, c-Met (Homo sapiens, UniProt P08581); assay: Kinase inhibition assay (33P transfer), c-Met; settings: Table 2, class symbols A-E; read-out: Met-1
T7 construct: Kinases are expressed as either kinase domains or full length constructs; made in house
Procedure, shortened: as §2

AKT = target: T8, AKT (Homo sapiens, UniProt Q9Y243); assay: Kinase inhibition assay (33P transfer), AKT; settings: Table 2, class symbols A-E; read-out: AKT3-1
T8 construct: Kinases are expressed as either kinase domains or full length constructs; made in house
Procedure, shortened: as §1

Lck = target: T9, Lck (Homo sapiens, UniProt P06239); assay: Kinase inhibition assay (33P transfer), Lck; settings: Table 3, class symbols; read-out: Lck-1
T9 construct: Kinases are expressed as either kinase domains or full length constructs; made in house
Procedure, shortened: as §1

Zap-70 = target: T10, Zap-70 (Homo sapiens, UniProt P43403); assay: Kinase inhibition assay (33P transfer), Zap-70; settings: Table 3, class symbols; read-out: Zap-1
T10 construct: Kinases are expressed as either kinase domains or full length constructs; made in house
T10 sequence (P43403 1-619): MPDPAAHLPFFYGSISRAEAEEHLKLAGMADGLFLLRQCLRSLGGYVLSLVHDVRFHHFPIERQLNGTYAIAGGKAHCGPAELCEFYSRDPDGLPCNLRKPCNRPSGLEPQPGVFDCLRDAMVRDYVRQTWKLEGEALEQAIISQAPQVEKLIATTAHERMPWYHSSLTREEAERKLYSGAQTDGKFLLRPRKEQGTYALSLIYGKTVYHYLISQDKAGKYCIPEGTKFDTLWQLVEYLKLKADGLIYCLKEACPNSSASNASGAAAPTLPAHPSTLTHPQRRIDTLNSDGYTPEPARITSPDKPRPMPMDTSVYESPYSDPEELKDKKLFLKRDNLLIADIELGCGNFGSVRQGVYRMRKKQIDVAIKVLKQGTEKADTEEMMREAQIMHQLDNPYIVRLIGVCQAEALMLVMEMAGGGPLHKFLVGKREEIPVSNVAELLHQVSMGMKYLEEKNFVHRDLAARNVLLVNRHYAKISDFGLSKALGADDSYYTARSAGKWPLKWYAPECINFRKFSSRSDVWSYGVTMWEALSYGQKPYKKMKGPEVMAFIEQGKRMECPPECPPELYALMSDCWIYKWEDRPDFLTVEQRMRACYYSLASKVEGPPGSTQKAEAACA
Procedure, shortened: as §1

T7 sequence (P08581 25-1390): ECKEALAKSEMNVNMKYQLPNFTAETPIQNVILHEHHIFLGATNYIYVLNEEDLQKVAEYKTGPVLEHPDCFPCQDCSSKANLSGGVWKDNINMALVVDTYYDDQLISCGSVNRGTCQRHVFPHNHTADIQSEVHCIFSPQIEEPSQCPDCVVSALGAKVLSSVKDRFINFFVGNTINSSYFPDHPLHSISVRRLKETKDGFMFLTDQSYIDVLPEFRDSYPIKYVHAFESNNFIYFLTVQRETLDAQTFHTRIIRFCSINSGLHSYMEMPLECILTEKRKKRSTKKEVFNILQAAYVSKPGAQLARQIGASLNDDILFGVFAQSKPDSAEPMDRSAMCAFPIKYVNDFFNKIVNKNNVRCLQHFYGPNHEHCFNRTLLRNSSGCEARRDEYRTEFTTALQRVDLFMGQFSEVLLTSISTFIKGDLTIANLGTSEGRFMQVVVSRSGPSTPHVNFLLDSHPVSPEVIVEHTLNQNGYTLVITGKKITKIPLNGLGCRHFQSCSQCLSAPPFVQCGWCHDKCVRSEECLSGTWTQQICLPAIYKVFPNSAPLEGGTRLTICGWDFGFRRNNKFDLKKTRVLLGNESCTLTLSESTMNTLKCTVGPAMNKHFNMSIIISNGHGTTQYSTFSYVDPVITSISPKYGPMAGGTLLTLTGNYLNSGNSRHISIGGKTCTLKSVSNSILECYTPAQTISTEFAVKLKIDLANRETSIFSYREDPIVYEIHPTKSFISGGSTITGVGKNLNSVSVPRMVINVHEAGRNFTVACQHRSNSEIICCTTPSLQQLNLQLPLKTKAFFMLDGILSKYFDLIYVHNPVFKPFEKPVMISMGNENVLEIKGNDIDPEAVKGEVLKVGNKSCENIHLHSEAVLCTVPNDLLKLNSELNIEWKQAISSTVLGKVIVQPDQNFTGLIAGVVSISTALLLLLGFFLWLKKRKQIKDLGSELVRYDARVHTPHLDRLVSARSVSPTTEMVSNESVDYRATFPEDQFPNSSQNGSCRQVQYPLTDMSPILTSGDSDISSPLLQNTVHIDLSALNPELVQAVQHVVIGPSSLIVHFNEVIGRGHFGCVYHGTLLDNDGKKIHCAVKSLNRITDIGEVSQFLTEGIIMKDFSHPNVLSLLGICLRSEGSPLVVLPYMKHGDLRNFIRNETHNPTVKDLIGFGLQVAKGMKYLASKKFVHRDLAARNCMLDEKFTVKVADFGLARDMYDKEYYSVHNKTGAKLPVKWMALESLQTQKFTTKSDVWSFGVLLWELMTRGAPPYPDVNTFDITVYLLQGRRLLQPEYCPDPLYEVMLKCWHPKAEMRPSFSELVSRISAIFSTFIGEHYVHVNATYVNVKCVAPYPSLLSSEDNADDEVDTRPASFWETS
T4 sequence (P04626 23-1255, species assumed): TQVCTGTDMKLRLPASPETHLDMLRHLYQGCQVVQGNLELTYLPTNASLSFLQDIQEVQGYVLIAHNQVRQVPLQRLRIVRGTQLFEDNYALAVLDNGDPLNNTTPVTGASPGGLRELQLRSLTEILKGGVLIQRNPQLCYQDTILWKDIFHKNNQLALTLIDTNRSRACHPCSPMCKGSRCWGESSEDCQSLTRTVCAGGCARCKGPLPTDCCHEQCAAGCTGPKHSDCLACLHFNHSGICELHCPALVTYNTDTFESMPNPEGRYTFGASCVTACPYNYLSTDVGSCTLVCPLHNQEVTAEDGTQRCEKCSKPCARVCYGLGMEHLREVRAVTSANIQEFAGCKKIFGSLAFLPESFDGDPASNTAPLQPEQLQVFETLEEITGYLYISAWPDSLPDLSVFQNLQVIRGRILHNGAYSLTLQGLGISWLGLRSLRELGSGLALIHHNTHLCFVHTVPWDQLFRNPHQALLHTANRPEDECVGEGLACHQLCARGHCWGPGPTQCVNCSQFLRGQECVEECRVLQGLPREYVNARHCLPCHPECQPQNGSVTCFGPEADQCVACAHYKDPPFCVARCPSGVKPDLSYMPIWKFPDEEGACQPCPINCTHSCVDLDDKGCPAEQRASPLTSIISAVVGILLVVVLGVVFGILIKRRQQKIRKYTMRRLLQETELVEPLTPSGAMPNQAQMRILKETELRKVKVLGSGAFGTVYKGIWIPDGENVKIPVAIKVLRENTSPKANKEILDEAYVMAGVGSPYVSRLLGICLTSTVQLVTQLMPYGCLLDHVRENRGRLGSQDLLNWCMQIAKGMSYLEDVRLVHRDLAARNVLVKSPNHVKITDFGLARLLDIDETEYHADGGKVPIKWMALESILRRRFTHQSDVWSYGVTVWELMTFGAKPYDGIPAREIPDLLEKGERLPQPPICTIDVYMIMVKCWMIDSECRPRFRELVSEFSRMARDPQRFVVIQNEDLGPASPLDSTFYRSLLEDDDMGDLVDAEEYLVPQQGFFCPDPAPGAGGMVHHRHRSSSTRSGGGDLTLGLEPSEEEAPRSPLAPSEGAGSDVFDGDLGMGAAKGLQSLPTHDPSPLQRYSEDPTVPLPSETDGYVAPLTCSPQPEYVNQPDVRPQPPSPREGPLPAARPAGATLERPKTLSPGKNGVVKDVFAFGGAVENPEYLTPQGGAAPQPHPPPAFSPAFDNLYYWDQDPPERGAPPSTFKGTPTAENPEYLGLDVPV
T2 sequence (P08069 31-1367): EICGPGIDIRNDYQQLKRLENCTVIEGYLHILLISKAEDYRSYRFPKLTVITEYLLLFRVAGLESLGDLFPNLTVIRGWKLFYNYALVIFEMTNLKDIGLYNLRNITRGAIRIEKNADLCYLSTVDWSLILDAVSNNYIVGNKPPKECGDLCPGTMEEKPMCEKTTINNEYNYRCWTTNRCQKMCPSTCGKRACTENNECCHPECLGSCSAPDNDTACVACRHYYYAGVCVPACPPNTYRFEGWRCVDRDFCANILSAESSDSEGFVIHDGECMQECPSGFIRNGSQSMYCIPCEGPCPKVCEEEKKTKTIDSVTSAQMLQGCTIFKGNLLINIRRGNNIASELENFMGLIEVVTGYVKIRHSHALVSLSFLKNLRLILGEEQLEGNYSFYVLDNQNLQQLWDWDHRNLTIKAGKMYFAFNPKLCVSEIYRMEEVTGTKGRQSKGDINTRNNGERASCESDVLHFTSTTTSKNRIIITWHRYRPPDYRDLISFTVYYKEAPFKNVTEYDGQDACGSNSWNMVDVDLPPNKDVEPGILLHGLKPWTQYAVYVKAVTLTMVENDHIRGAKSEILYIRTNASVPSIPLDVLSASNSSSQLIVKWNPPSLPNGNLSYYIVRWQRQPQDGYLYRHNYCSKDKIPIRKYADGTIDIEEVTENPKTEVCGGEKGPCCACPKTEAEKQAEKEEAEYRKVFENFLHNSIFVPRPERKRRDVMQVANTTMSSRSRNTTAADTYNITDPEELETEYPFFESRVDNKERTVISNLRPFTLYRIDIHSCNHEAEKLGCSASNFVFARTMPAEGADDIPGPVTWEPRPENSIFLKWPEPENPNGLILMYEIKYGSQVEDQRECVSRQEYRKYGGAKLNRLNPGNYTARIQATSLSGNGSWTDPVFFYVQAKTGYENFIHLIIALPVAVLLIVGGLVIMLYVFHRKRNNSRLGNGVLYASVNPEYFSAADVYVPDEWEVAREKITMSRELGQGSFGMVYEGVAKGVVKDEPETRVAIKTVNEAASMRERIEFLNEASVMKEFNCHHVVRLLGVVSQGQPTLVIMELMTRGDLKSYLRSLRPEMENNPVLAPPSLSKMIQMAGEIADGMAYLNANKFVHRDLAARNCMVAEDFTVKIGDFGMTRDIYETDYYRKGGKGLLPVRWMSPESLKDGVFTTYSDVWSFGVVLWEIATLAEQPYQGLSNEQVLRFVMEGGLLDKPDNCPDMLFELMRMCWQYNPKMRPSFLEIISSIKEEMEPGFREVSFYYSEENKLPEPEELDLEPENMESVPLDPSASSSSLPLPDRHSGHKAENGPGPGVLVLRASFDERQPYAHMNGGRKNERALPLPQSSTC
T5 sequence (P00533 25-1210, species assumed): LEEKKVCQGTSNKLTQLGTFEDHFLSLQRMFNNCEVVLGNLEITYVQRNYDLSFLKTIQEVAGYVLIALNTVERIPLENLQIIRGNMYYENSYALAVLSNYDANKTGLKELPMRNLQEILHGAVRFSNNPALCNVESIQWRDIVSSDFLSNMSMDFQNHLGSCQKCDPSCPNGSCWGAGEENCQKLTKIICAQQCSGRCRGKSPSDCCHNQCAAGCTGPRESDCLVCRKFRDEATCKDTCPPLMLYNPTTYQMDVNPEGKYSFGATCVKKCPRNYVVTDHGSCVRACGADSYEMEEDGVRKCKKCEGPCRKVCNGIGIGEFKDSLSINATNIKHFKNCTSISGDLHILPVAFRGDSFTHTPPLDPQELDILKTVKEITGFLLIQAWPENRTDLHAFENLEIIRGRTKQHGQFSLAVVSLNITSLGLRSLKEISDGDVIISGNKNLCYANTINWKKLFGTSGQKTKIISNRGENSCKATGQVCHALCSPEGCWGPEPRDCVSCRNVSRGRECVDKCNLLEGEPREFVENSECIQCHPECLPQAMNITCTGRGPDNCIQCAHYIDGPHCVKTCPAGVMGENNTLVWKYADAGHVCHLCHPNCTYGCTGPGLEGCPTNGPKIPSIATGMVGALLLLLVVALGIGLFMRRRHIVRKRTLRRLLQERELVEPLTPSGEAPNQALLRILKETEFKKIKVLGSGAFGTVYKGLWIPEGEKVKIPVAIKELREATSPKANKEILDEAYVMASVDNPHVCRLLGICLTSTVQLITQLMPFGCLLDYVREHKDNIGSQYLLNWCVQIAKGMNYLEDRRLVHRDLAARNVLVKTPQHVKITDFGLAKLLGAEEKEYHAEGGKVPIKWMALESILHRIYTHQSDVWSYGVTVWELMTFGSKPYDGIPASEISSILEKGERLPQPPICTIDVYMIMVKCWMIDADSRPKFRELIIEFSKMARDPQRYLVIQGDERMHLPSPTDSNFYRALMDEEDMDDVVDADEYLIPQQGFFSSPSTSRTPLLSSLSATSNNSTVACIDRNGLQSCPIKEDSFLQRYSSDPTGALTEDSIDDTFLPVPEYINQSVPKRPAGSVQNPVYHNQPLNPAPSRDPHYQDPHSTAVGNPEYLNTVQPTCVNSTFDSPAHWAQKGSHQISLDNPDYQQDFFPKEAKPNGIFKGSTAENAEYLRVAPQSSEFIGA

SMILES | IC50 (Kdr) | IC50 (IGFR-1) | IC50 (Itk) | IC50 (ErbB2) | IC50 (EGFR) | IC50 (PDGFRB) | IC50 (c-Met) | IC50 (AKT) | IC50 (Lck) | IC50 (Zap-70)
COc1cc(Nc2ncnc(-c3cccnc3NC3CCCCC3)n2)cc(OC)c1OC [Compound 848] | < 0.916 µM | > 10.3 µM | > 10.3 µM | > 10.3 µM | > 10.3 µM | < 0.916 µM | > 10.3 µM | > 10.3 µM | 8.02 to 10.3 µM | > 10.3 µM
COC(=O)c1ccc(-c2cc(Nc3ncnc(NCCc4c[nH]c5ccccc45)n3)[nH]n2)cc1 [Compound 806] | 0.88 to 5.28 µM | 0.88 to 5.28 µM | 0.88 to 5.28 µM | 0.88 to 5.28 µM | 0.88 to 5.28 µM | > 9.9 µM | 0.88 to 5.28 µM | > 9.9 µM | 0.88 to 5.28 µM | > 9.9 µM
FC(F)(F)Oc1ccc(Nc2ncnc(Nc3ccc4c(cnn4Cc4ccccc4)c3)n2)cc1 [Compound 906] | 0.838 to 5.03 µM | 5.03 to 7.33 µM | > 9.43 µM | 0.838 to 5.03 µM | 0.838 to 5.03 µM | > 9.43 µM | 0.838 to 5.03 µM | 0.838 to 5.03 µM | > 9.43 µM | > 9.43 µM
COc1ccc(Nc2ncnc(N(C)C3CCCCC3)n2)cc1OC [Compound 796] | 10.2 to 13.1 µM | > 13.1 µM | 6.99 to 10.2 µM | 6.99 to 10.2 µM | < 1.16 µM | 1.16 to 6.99 µM | 1.16 to 6.99 µM | > 13.1 µM | < 1.16 µM | > 13.1 µM
COc1cc(Nc2ncnc(-c3cccnc3Nc3cccc(C(C)=O)c3)n2)cc(OC)c1OC [Compound 831] | > 9.52 µM | > 9.52 µM | > 9.52 µM | > 9.52 µM | > 9.52 µM | < 0.847 µM | 5.08 to 7.41 µM | > 9.52 µM | > 9.52 µM | > 9.52 µM
CN(c1ccc2c(cnn2Cc2ccccc2)c1)c1ncnc(Nc2cccc(Cc3nnn[nH]3)c2)n1 [Compound 671] | 0.817 to 4.9 µM | 4.9 to 7.15 µM | 7.15 to 9.19 µM | < 0.817 µM | < 0.817 µM | 0.817 to 4.9 µM | < 0.817 µM | > 9.19 µM | 7.15 to 9.19 µM | > 9.19 µM
COC(=O)c1ccc(-c2cc(Nc3ncnc(Nc4cc(F)cc(F)c4)n3)[nH]n2)cc1 [Compound 810] | > 10.6 µM | 8.27 to 10.6 µM | > 10.6 µM | > 10.6 µM | > 10.6 µM | > 10.6 µM | > 10.6 µM | > 10.6 µM | > 10.6 µM | > 10.6 µM
CN(c1ccc2c(cnn2Cc2ccccc2)c1)c1ncnc(Nc2cccc(Br)c2)n1 [Compound 667] | > 9.25 µM | > 9.25 µM | > 9.25 µM | 0.822 to 4.93 µM | < 0.822 µM | > 9.25 µM | 7.2 to 9.25 µM | > 9.25 µM | > 9.25 µM | > 9.25 µM
c1ccc(CNc2ncnc(Nc3cc(-c4ccco4)n[nH]3)n2)nc1 [Compound 995] | 7.18 to 10.5 µM | 7.18 to 10.5 µM | 10.5 to 13.5 µM | > 13.5 µM | 1.2 to 7.18 µM | 1.2 to 7.18 µM | > 13.5 µM | > 13.5 µM | > 13.5 µM | > 13.5 µM
CCOc1ccc(Nc2ncnc(Nc3cc(-c4ccc(C(=O)OC)cc4)n[nH]3)n2)cc1 [Compound 879] | > 10.4 µM | 5.56 to 8.11 µM | 8.11 to 10.4 µM | > 10.4 µM | 0.927 to 5.56 µM | 0.927 to 5.56 µM | 0.927 to 5.56 µM | > 10.4 µM | > 10.4 µM | > 10.4 µM
CN(c1cccc(Cl)c1)c1ncnc(Nc2ccc3c(cnn3C)c2)n1 [Compound 674] | 1.09 to 6.56 µM | > 12.3 µM | > 12.3 µM | 1.09 to 6.56 µM | < 1.09 µM | 1.09 to 6.56 µM | 1.09 to 6.56 µM | > 12.3 µM | 1.09 to 6.56 µM | > 12.3 µM
COc1ccc(CNc2ncnc(Nc3cc(-c4ccco4)[nH]n3)n2)cc1OC [Compound 822] | 8.9 to 11.4 µM | 1.02 to 6.1 µM | 1.02 to 6.1 µM | 6.1 to 8.9 µM | 1.02 to 6.1 µM | 1.02 to 6.1 µM | 6.1 to 8.9 µM | > 11.4 µM | > 11.4 µM | 6.1 to 8.9 µM
COc1cc(Nc2ncnc(Nc3cc(-c4ccc(C(=O)N(C)C)cc4)n[nH]3)n2)cc(OC)c1OC [Compound 993] | 0.815 to 4.89 µM | < 0.815 µM | 4.89 to 7.14 µM | 0.815 to 4.89 µM | 0.815 to 4.89 µM | 0.815 to 4.89 µM | < 0.815 µM | > 9.17 µM | < 0.815 µM | > 9.17 µM
COc1cc(Nc2ncnc(-c3cccnc3Nc3cccc4c3CCCC4)n2)cc(OC)c1OC [Compound 841] | > 9.29 µM | > 9.29 µM | > 9.29 µM | > 9.29 µM | > 9.29 µM | > 9.29 µM | > 9.29 µM | > 9.29 µM | > 9.29 µM | > 9.29 µM
CCOc1cccc(Nc2ncnc(Nc3cc(-c4ccc(C(=O)OC)cc4)n[nH]3)n2)c1 [Compound 812] | 8.11 to 10.4 µM | 0.927 to 5.56 µM | 8.11 to 10.4 µM | 5.56 to 8.11 µM | > 10.4 µM | > 10.4 µM | 0.927 to 5.56 µM | > 10.4 µM | 0.927 to 5.56 µM | > 10.4 µM
OCc1cccc(Nc2ncnc(-c3cccnc3NCc3ccc(F)cc3)n2)c1 [Compound 1104] | < 0.994 µM | > 11.2 µM and 8.7 to 11.2 µM | > 11.2 µM and 8.7 to 11.2 µM | > 11.2 µM and 0.994 to 5.96 µM | > 11.2 µM and 0.994 to 5.96 µM | < 0.994 µM | > 11.2 µM | 8.7 to 11.2 µM and > 11.2 µM | > 11.2 µM and 0.994 to 5.96 µM | > 11.2 µM
COc1cc(Nc2ncnc(-c3cccnc3Nc3cccc(Oc4ccccc4)c3)n2)cc(OC)c1OC [Compound 840] | 4.59 to 6.7 µM | > 8.61 µM | > 8.61 µM | 0.765 to 4.59 µM | > 8.61 µM | 0.765 to 4.59 µM | > 8.61 µM | > 8.61 µM | > 8.61 µM | > 8.61 µM
c1cc(Cn2ccnn2)cc(Nc2ncnc(-n3c(Nc4ccc5[nH]ccc5c4)nc4ccccc43)n2)c1 [Compound 963] | < 0.801 µM | 4.8 to 7.01 µM | 4.8 to 7.01 µM | 0.801 to 4.8 µM | 4.8 to 7.01 µM | < 0.801 µM | 0.801 to 4.8 µM | 7.01 to 9.01 µM | 0.801 to 4.8 µM | 7.01 to 9.01 µM
Cc1cccc(Nc2ncnc(N(C)c3ccc4c(cnn4Cc4ccccc4)c3)n2)c1 [Compound 668] | 5.69 to 8.3 µM | > 10.7 µM | > 10.7 µM | < 0.949 µM | < 0.949 µM | 8.3 to 10.7 µM | 5.69 to 8.3 µM | > 10.7 µM | 5.69 to 8.3 µM | > 10.7 µM

— patent publication US7074789B2, “Kinase inhibitors” (Amgen Inc., priority 1999, dated 2006)
